Format in all cases: physicochemical
Data set [1] is described as follows: Light stability under ICH high intensity light conditions. The text has this: (§1) The present invention provides several polymorph crystalline forms and an amorphous form of the compound of Formula I. Each crystalline or amorphous form of the compound can be characterized by one or more of the following: X-ray powder diffraction pattern (i.e., X-ray diffraction peaks at various diffraction angles (2θ)), melting point onset (and onset of dehydration for hydrated forms) as illustrated by endotherms of a Differential Scanning Calorimetry (DSC) thermogram, Raman spectral diagram pattern, aqueous solubility, light stability under International Conference on Harmonization (ICH) high intensity light conditions, and physical and chemical storage stability.

Data set [2] can be described thus: Aqueous solubility. The following applies: for solubility: thermodynamic from solid.
From the text: as §1

Data set [3] can be described thus: Hygroscopicity / form conversion under ambient humidity. The following applies: for conversion of solid form: ambient humidity.
The nature of data set [4]: Physical and chemical storage stability.
From the text: as §1

[5] abbreviates: aqueous medium, pH 2, pH 2, aqueous buffer, pH 2.

From patent US20050267158A1, “Polymorphic and amorphous forms of 2,5-dimethyl-2H-pyrazole-3-carboxylic acid {2-fluoro-5-[3-((E)-2 pyridin-2-YL-vinyl)-1H-indazol-6-ylamino]-phenyl}-amide” (AGOURON PHARMACEUTICALS, INC., priority 2004, published 2005) come the findings set out here.

≈ marks a conversion by molar mass, not a printed value.

Consider `Cc1cc(C(=O)Nc2cc(Nc3ccc4c(/C=C/c5ccccn5)n[nH]c4c3)ccc2F)n(C)n1` [Form III, 2,5-Dimethyl-2H-pyrazole-3-carboxylic acid {2-fluoro-5-[3-((E)-2-pyridin-2-yl-vinyl)-1H-indazol-6-ylamino]-phenyl}-amide], for which the light stability entry in data set [1] is “light-stable”. The figures for the aqueous solubility entry in data set [2] (pH 2) and in data set [2] (pH 7.4) were “about 10 μg/mL” and “about 0.6 μg/mL”, respectively.

For `Cc1cc(C(=O)Nc2cc(Nc3ccc4c(/C=C/c5ccccn5)n[nH]c4c3)ccc2F)n(C)n1` [Form Ibm-2, 2,5-Dimethyl-2H-pyrazole-3-carboxylic acid {2-fluoro-5-[3-((E)-2-pyridin-2-yl-vinyl)-1H-indazol-6-ylamino]-phenyl}-amide], the “conversion of solid form” value in data set [3] is reported as “will convert to Form Ib upon complete hydration”.

The solubility is the dissolved amount per volume that the medium holds. Turning to `Cc1cc(C(=O)Nc2cc(Nc3ccc4c(/C=C/c5ccccn5)n[nH]c4c3)ccc2F)n(C)n1` [Form II, 2,5-Dimethyl-2H-pyrazole-3-carboxylic acid {2-fluoro-5-[3-((E)-2-pyridin-2-yl-vinyl)-1H-indazol-6-ylamino]-phenyl}-amide], in data set [1], the light stability entry is “light-stable”. Also, the solubility was ~19 µg/mL (≈ 40.6 µM) in data set [2] (aqueous medium at pH 2, pH 2, aqueous buffer, pH 2) and ~0.7 µg/mL (≈ 1.5 µM) in data set [2] (aqueous medium at pH 7.4, pH 7.4, aqueous buffer, pH 7.4).

For `Cc1cc(C(=O)Nc2cc(Nc3ccc4c(/C=C/c5ccccn5)n[nH]c4c3)ccc2F)n(C)n1` [Form I, 2,5-Dimethyl-2H-pyrazole-3-carboxylic acid {2-fluoro-5-[3-((E)-2-pyridin-2-yl-vinyl)-1H-indazol-6-ylamino]-phenyl}-amide], the time chemically stable in data set [4] (80° C. and 40° C./75% RH) is recorded as “at least 14 days”. For the same molecule, in data set [1], the light stability entry is reported as “light-stable”. For the same molecule, the solubility was ~0.4 µg/mL (≈ 0.856 µM) in data set [2] (aqueous medium (pH 7.4), pH 7.4, aqueous buffer, pH 7.4) and ~39 µg/mL (≈ 83.4 µM) in data set [2] (setting [5]).

On to `Cc1cc(C(=O)Nc2cc(Nc3ccc4c(/C=C/c5ccccn5)n[nH]c4c3)ccc2F)n(C)n1` [Form Ib, 2,5-Dimethyl-2H-pyrazole-3-carboxylic acid {2-fluoro-5-[3-((E)-2-pyridin-2-yl-vinyl)-1H-indazol-6-ylamino]-phenyl}-amide], for which the “physical and chemical stability” value in data set [4] (60° C. and 40° C./75% RH) was “physically and chemically stable for at least three months”.

With `Cc1cc(C(=O)Nc2cc(Nc3ccc4c(/C=C/c5ccccn5)n[nH]c4c3)ccc2F)n(C)n1` [Form Ia, 2,5-Dimethyl-2H-pyrazole-3-carboxylic acid {2-fluoro-5-[3-((E)-2-pyridin-2-yl-vinyl)-1H-indazol-6-ylamino]-phenyl}-amide], in data set [1], the light stability entry is recorded as “light-stable”.

As for `Cc1cc(C(=O)Nc2cc(Nc3ccc4c(/C=C/c5ccccn5)n[nH]c4c3)ccc2F)n(C)n1` [Form IV, 2,5-Dimethyl-2H-pyrazole-3-carboxylic acid {2-fluoro-5-[3-((E)-2-pyridin-2-yl-vinyl)-1H-indazol-6-ylamino]-phenyl}-amide], the light stability entry in data set [1] is listed as “light-stable”. Moreover, in data set [2] (setting [5]), the solubility was ~7 µg/mL (≈ 15 µM).

On to `Cc1cc(C(=O)Nc2cc(Nc3ccc4c(/C=C/c5ccccn5)n[nH]c4c3)ccc2F)n(C)n1` [Form VI, 2,5-Dimethyl-2H-pyrazole-3-carboxylic acid {2-fluoro-5-[3-((E)-2-pyridin-2-yl-vinyl)-1H-indazol-6-ylamino]-phenyl}-amide], for which, in data set [3], the hygroscopicity result is reported as “very hygroscopic” and the “conversion of solid form” value was “readily converted back to Form Ib”.

As for `Cc1cc(C(=O)Nc2cc(Nc3ccc4c(/C=C/c5ccccn5)n[nH]c4c3)ccc2F)n(C)n1` [Form V, 2,5-Dimethyl-2H-pyrazole-3-carboxylic acid {2-fluoro-5-[3-((E)-2-pyridin-2-yl-vinyl)-1H-indazol-6-ylamino]-phenyl}-amide], the light stability entry in data set [1] is “light-stable”. In addition, the solubility in data set [2] (aqueous medium, pH 2, aqueous buffer, pH 2) was ~8 µg/mL (≈ 17.1 µM). The aqueous solubility entry in data set [2] (pH 7.4) is “about 0.2 μg/mL”.
